Starred links: 1 amine or outer side, 2 acyl side, 3 side chain; linkers in the order of their positions; H or OH if unused. Non-standard residues stand in square brackets, D forms with d. Groups on a side chain read outwards from the residue. *: point of attachment. C18 diacid = O=C(O)CCCCCCCCCCCCCCCCC(=O)*; γGlu = O=C(O)[C@H](CCC(=O)[*:2])N[*:1]; αMe4Pal = C[C@](N)(Cc1ccncc1)C(=O)O; αMeY = C[C@](N)(Cc1ccc(O)cc1)C(=O)O; 4Pal = N[C@@H](Cc1ccncc1)C(=O)O; αMeL = CC(C)C[C@](C)(N)C(=O)O; AEEA = NCCOCCOCC(=O)O; Aib = CC(C)(N)C(=O)O

Data on 18 substances can be found in US20240270821A1, “GIP/GLP1/GCG TRI-RECEPTOR AGONISTS AND USES THEREOF” (priority 2023, published 2024).

Common to all, as to format: cell-based
Assay [1] has as its target T1, hGLP-1R (Homo sapiens, UniProt P43220). Kind of assay: Functional cAMP activation in the presence of 0.1% casein (no HSA). The following applies: in the presence of 0.1% casein (no HSA); geometric mean; read-out: Relative cAMP EC50, hGLP-1R.
For assay [2], the target named is T2, hGIPR (Homo sapiens, UniProt P48546).
T2 sequence (P48546 22-466): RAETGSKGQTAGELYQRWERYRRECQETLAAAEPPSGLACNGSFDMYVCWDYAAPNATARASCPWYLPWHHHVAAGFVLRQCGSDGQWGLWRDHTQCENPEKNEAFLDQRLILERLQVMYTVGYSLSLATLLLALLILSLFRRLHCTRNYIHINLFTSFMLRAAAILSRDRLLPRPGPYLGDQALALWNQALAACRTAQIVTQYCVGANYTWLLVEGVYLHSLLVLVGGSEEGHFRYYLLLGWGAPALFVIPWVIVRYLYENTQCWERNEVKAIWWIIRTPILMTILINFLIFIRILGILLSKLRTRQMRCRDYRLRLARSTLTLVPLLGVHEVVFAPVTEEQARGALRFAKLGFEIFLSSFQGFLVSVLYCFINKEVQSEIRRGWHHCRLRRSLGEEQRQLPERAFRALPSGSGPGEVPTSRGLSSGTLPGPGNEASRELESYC
The assay is described as follows: Functional cAMP activity in the presence of 1% HSA. Conditions: read-out: cAMP Rel EC50, hGIPR.

The next assay concerns the target human GcgR (Homo sapiens, UniProt P47871). The assay is described as follows: Functional cAMP activity in the presence of 1% HSA. The following applies: read-out: cAMP Rel EC50, hGcgR.
Assay [3] deals with T1, hGLP-1R. Kind of assay: Functional cAMP activity in the presence of 1% HSA. Conditions: read-out: cAMP Rel EC50, hGLP-1R.
The next assay deals with hGcgR (Homo sapiens, UniProt P47871). The assay is described as follows: Functional cAMP activation in the presence of 0.1% casein (no HSA). The following applies: in the presence of 0.1% casein (no HSA); geometric mean; read-out: Relative cAMP EC50, hGcgR.
hGcgR, sequence (P47871 26-477): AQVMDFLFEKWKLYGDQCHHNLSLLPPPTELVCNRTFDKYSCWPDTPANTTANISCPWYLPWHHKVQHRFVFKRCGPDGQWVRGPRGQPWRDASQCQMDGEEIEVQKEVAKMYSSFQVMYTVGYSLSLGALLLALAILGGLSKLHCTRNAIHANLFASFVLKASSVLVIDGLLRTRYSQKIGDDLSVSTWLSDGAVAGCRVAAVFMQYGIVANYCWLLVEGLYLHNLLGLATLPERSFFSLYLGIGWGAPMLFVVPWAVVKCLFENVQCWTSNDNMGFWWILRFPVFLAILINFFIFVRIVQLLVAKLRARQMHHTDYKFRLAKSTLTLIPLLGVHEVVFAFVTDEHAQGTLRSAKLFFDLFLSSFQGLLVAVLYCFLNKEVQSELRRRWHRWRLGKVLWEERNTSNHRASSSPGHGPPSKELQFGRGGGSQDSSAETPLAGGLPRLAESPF
In assay [4] the target is T2, hGIPR. Described as above. Conditions: in the presence of 0.1% casein (no HSA); geometric mean; read-out: Relative cAMP EC50, hGIPR.
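Wherever Relative cAMP EC50, hGIPR is given: intracellular cAMP rise after 30 min at 37 °C read by HTRF against a standard curve, scaled between buffer alone (0%) and top control ligand concentration (100%), four-parameter fit.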
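Wherever Relative cAMP EC50, hGLP-1R is given: intracellular cAMP rise after 30 min at 37 °C read by HTRF, normalized between buffer only (0%) and maximal control ligand (100%), four-parameter variable-slope fit.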
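Wherever Relative cAMP EC50, hGcgR is given: intracellular cAMP rise after 30 min at 37 °C, read by HTRF against a cAMP standard curve, scaled from buffer only (0%) to maximal control ligand response (100%).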

T1 sequence (P43220 24-463): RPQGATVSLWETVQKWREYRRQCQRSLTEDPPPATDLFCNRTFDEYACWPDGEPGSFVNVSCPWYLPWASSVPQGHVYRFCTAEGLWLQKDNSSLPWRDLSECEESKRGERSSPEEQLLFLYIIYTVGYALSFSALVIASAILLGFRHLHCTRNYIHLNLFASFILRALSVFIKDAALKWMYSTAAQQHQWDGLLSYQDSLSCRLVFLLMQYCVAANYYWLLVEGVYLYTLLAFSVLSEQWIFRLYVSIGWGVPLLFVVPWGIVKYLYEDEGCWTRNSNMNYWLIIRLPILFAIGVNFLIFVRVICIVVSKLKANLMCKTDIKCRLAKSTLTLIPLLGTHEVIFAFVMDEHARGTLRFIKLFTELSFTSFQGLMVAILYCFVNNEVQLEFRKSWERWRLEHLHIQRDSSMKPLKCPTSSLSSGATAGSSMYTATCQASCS
human GcgR, sequence (P47871 26-477): as the sequence (P47871 26-477) above

Broadly, the EC50 is the midpoint of the concentration-response curve. Regarding “H-Y[Aib]QGTFTSD[4Pal]SQ[αMeL]LDKK([AEEA-γGlu-C18 diacid])AQ[αMe4Pal]AFIE[αMeY]LIEGGPSSGAPPPSGS-NH2 [Example 844]”, the EC50 at hGLP-1R [1] came out at 0.61 nM; on hGIPR [2] it was 43.3 nM; on human GcgR, 583 nM; at hGLP-1R [3] it was 151 nM; at hGcgR, 2.83 nM; at hGIPR [4] it was 0.27 nM.

For “H-Y[Aib]QGTFTSD[4Pal]SQ[αMeL]LDKK([AEEA-γGlu-C18 diacid])AQ[αMe4Pal]QFIE[αMeY]LIEGGPSSGAPPPSGS-NH2 [Example 855]”, the EC50 came to 0.908 nM on hGLP-1R [1]; 46.1 nM on hGIPR [2]; 1030 nM on human GcgR; 207 nM on hGLP-1R [3]; 2.67 nM on hGcgR; 0.271 nM at hGIPR [4].

In the case of “H-Y[Aib]QGTFTSD[4Pal]SQ[αMeL]LDKK([AEEA-γGlu-γGlu-C18 diacid])AQ[αMe4Pal]AFIEWLIEGGPSSGAPPPSGS-NH2 [Example 871]”, the EC50 was determined as 2.92 nM on hGLP-1R [1]; 35.4 nM at hGIPR [2]; 2060 nM at human GcgR; 230 nM at hGLP-1R [3]; 12.6 nM on hGcgR; 0.2 nM at hGIPR [4].

Take “H-Y[Aib]QGTFTSD[4Pal]SQ[αMeL]LDKK([AEEA-γGlu-γGlu-C18 diacid])AQ[αMe4Pal]AFIEYLIAGGPSSGEPPPSGS-NH2 [Example 947]”: the EC50 is 1.7 nM at hGLP-1R [1]; 16.6 nM on hGIPR [2]; 727 nM at human GcgR; 150 nM at hGLP-1R [3]; 6.99 nM on hGcgR; 0.289 nM on hGIPR [4].

With “H-Y[Aib]QGTFTSD[4Pal]SQ[αMeL]LDKK([AEEA-γGlu-γGlu-C18 diacid])AQ[αMe4Pal]AFIEYLIE[Aib]GPSSGAPPPSGS-NH2 [Example 860]”, the EC50 at hGLP-1R [1] came out at 3.95 nM; at hGIPR [2] it was 19.2 nM; at human GcgR, 565 nM; on hGLP-1R [3], 414 nM; at hGcgR, 11 nM; on hGIPR [4], 0.202 nM.

With “H-Y[Aib]QGTFTSD[4Pal]SQ[αMeL]LDKK([Glu-Glu-γGlu-C18 diacid])AQ[αMe4Pal]AFIEYLIAGGPSSGAPPPSGE-NH2 [Example 1087]”, the EC50 at hGLP-1R [1] was determined as 2.63 nM; at hGIPR [2] it was 23.3 nM; at human GcgR, 2460 nM; at hGLP-1R [3], 439 nM; at hGcgR, 15.4 nM; on hGIPR [4], 0.207 nM.

Regarding “H-Y[Aib]QGTFTSD[4Pal]SQ[αMeL]LDKK([Glu-Glu-γGlu-C18 diacid])AQ[αMe4Pal]AFIEYLIAGGPSSGAPPPSGEEE-NH2 [Example 1090]”, the EC50 was 5.44 nM on hGLP-1R [1]; 27.3 nM on hGIPR [2]; 2010 nM at human GcgR; 619 nM at hGLP-1R [3]; 15.6 nM at hGcgR; 0.272 nM at hGIPR [4].

Take “H-Y[Aib]QGTFTSD[4Pal]SQ[αMeL]LDKK([Glu-γGlu-C18 diacid])AQ[αMe4Pal]AFIEYLIAGGPSSGAPPPSGEEE-NH2 [Example 1089]”: the EC50 on hGLP-1R [1] came to 2.96 nM; on hGIPR [2] it was 34.6 nM; at human GcgR, 2580 nM; on hGLP-1R [3], 449 nM; at hGcgR it was 14 nM; at hGIPR [4] it was 0.213 nM.

For the substance “H-Y[Aib]QGTFTSD[4Pal]SQ[αMeL]LDKK([Glu-γGlu-C18 diacid])AQ[αMe4Pal]AFIEYLIAGGPSSGAPPPSGSEE-NH2 [Example 1030]”, the EC50 on hGLP-1R [1] came to 1.72 nM; at hGIPR [2] it was 21 nM; at human GcgR, 1830 nM; on hGLP-1R [3], 385 nM; on hGcgR, 9.42 nM; at hGIPR [4], 0.122 nM.

As to “H-Y[Aib]QGTFTSD[4Pal]SQ[αMeL]LDKK([Glu-γGlu-C18 diacid])AQ[αMe4Pal]AFIEYLIE[Aib]GPSSGAPPPSGS-NH2 [Example 894]”, the EC50 on hGLP-1R [1] came to 2.01 nM; at hGIPR [2] it was 30.9 nM; on human GcgR, 2330 nM; on hGLP-1R [3] it was 711 nM; at hGcgR, 6.09 nM; on hGIPR [4] it was 0.0752 nM.

“H-Y[Aib]QGTFTSD[4Pal]SQ[αMeL]LDKK([Glu-γGlu-Glu-C18 diacid])AQ[αMe4Pal]AFIEYLIE[Aib]GPSSGAPPPSGS-NH2 [Example 896]”: the EC50 at hGLP-1R [1] came out at 4.64 nM; at hGIPR [2], 16.8 nM; at human GcgR, 1110 nM; at hGLP-1R [3], 535 nM; at hGcgR it was 10.6 nM; on hGIPR [4], 0.12 nM.

With “H-Y[Aib]QGTFTSD[4Pal]SQ[αMeL]LDKK([dE-dE-γGlu-C18 diacid])AQ[αMe4Pal]AFIEYLIE[Aib]GPSSGAPPPSGS-NH2 [Example 921]”, the EC50 on hGLP-1R [1] was found to be 3.73 nM; on hGIPR [2], 12.4 nM; at human GcgR it was 2130 nM; at hGLP-1R [3], 261 nM; on hGcgR, 10.4 nM; on hGIPR [4], 0.228 nM.

Consider “H-Y[Aib]QGTFTSD[4Pal]SQ[αMeL]LDKK([dE-γGlu-C18 diacid])AQ[αMe4Pal]AFIEYLIAGGPSSGAPPPSGE-NH2 [Example 1085]”, for which the EC50 on hGLP-1R [1] turned out to be 1.28 nM; on hGIPR [2], 9.84 nM; on human GcgR, 1370 nM; on hGLP-1R [3] it was 188 nM; at hGcgR, 11.6 nM; on hGIPR [4] it was 0.0827 nM.

On to “H-Y[Aib]QGTFTSD[4Pal]SQ[αMeL]LDKK([dE-γGlu-C18 diacid])AQ[αMe4Pal]AFIEYLIE[Aib]GPSSGAPPPSGS-NH2 [Example 920]”, for which the EC50 came to 2.28 nM at hGLP-1R [1]; 9.05 nM at hGIPR [2]; 1090 nM at human GcgR; 322 nM on hGLP-1R [3]; 4.61 nM on hGcgR; 0.0905 nM at hGIPR [4].

Turning to “H-Y[Aib]QGTFTSD[4Pal]SQ[αMeL]LDKK([γGlu-AEEA-γGlu-C18 diacid])AQ[αMe4Pal]AFIEYLIE[Aib]GPSSGAPPPSGS-NH2 [Example 861]”, the EC50 at hGLP-1R [1] was 2.62 nM; on hGIPR [2], 18.3 nM; at human GcgR, 1350 nM; at hGLP-1R [3], 322 nM; on hGcgR, 8.59 nM; at hGIPR [4], 0.195 nM.

For “H-Y[Aib]QGTFTSD[4Pal]SQ[αMeL]LDKK([γGlu-γGlu-C18 diacid])AQ[Aib]AFIE[αMeY]LLEGGPSSGAPPPSGS-NH2 [Example 938]”, the EC50 amounted to 1.84 nM at hGLP-1R [1]; 21.5 nM at hGIPR [2]; 2830 nM at human GcgR; 263 nM on hGLP-1R [3]; 13.3 nM on hGcgR; 0.13 nM at hGIPR [4].

Consider “H-Y[Aib]QGTFTSD[4Pal]SQ[αMeL]LDKK([γGlu-γGlu-C18 diacid])AQ[Aib]AFIE[αMeY]LLEGGPSSGAPPPSGSEE-NH2 [Example 945]”, for which the 50% effective concentration (EC50) at hGLP-1R [1] turned out to be 3.9 nM; at hGIPR [2] it was 42.5 nM; on human GcgR, 2420 nM; at hGLP-1R [3] it was 555 nM; at hGcgR, 18 nM; at hGIPR [4], 0.246 nM.

On to “H-Y[Aib]QGTFTSD[4Pal]SQ[αMeL]LDKK([γGlu-γGlu-C18 diacid])AQ[αMe4Pal]AFIEWLIEGGPSSGAPPPSGS-NH2 [Example 872]”, for which the EC50 on hGLP-1R [1] amounted to 1.01 nM; at hGIPR [2] it was 30.1 nM; on human GcgR, 1890 nM; on hGLP-1R [3], 287 nM; on hGcgR, 4.18 nM; on hGIPR [4], 0.205 nM.
